Test results: patent US12331051B2 (priority 2021, dated 2025)

Columns and labels:
[1] = molecular target: T1, 5-HT2A receptor (Homo sapiens, UniProt P28223)
[2] = molecular target: T1, 5-HT2A receptor; experiment: 5-HT2A receptor internalization, NanoBit HiBit-fused 5-HT2A in HEK293T cells; assay type: cell-based; design: expressed in transfected cells; host or cells: HEK293T
Description: To assess the ability of the “E559 polymorph” to induce β-arrestin-mediated 5-HT2A receptor internalization in vitro, the loss of surface expression of 5-HT2A receptor was measured using a NanoBit N-terminal HiBit-fused 5-HT2A construct cloned in HEK293T cells (1:15 ratio 5-HT2A: β-arrestin2). In brief, cells were treated with serial dilution of test compounds for 1 hour or a specified time point.

[3] = test system: mice; experiment: Tolerance after repeated dosing, HTR to DOI challenge; assay type: in vivo, mouse; details: IP once daily 7 days: DOI 10 mg/kg/day, E559 polymorph 3 mg/kg/day; DOI 1 mg/kg challenge 24 hours later
Description: To determine if repeated dosing of the “E559 polymorph” can induce tolerance in vivo, HTR experiment described in Examples 2 and 5 was repeated where mice received IP injections of vehicle, DOI (10 mg/kg/day), or the “E559 polymorph” (3 mg/kg/day; once daily for 7 consecutive days) and were then challenged with DOI (1 mg/kg) 24 hours later. Data shown in FIG. 22 are group means±standard deviation for the entire 60 minutes test session. Asterisks indicate statistical significances compared to the Vehicle control (Vehicle was saline).

[4] = test system: primary cortical neurons (rats); experiment: In vitro dendritogenesis assay with volinanserin pre-treatment; assay type: cell-based, rat
Description: The 5-HT2A receptor plays a key role in the function of serotonergic psychedelics and their derivatives (Jaster, et al., Psychopharmacology, 2022, 239, p1665-1677.). […] The in vitro dendritogenesis assay was repeated in the presence or absence of a selective 5-HT2A antagonist volinanserin. In brief, FIG. 20A represents tracings of the cortical neurons (DIV 3) treated with volinanserin (Vol) at […]) followed by either vehicle or “E559 polymorph” (1 μM). Sholl radii are spaced 10 μm. […] FIG. 20C represents the total dendritic arbour length for neurons treated in FIG. 20A. In FIGS. 20B and 20C, violin plots represent the distribution of individual cells (n=15/treatment), while dots represent the averages per independent experiment (n=5/treatment). In this study primary cortical neurons (rats) were treated with volinanserin (0.1-1 μM), a selected 5-HT2A receptor antagonist, prior to the administration of the “polymorph HT compound” (1 μM 2-Br-LSD).

[5] = test system: stress-naïve mice; experiment: FST and OFT with volinanserin pre-treatment; assay type: in vivo, mouse
Description: The 5-HT2A receptor plays a key role in the function of many serotonergic psychedelics and their derivatives (Jaster et al., Psychopharmacology, 2022, 239, p1665-1677.). […] To further investigate the role of the 5-HT2A receptor in the “E559 polymorph” effects in these in vivo models, the open field test and forced swim test in mice was repeated as described in Example 14, with and without volinanserin, a selective 5-HT2A antagonist, treatment. Briefly, volnanserin (0.125 mg/kg) was administered (IP injection) 1 hour prior to the administration of the “E559 polymorph” (1 mg/kg, IP) to stress-naïve mice, and forced swim test was performed 24 hours later as described in Example 14. In brief, FIG. 26A represents immobility time in the forced swim test of female mice (n=12/group) pre-treated with vehicle or volinanserin, followed by either vehicle (saline) or “E559 polymorph” (1 mg/kg). […] FIG. 26C represents distance travelled in the open field Measured 24 hours after treatment (as in FIG. 26A) in female mice (n=12). […] Horizontal lines in FIG. 26 represent the mean±standard error of the mean (S.E.M.) and asterisks indicate statistical significances.

[6] = DVS hygroscopicity; assay type: physicochemical; details: for DVS (hold at 75% RH) mass increase: crude material, 75% relative humidity, ~5 hr run time
[7] = molecular target: T2, Serotonin 1B receptor (5-HT1BR) (Homo sapiens, UniProt P28222); experiment: Functional assay in HEK-293 cells (cAMP); assay type: cell-based; details: Functional Assay (agonist) EC50 (nM), cAMP; ligand 5-HT
T2 construct: expressed in transfected cells; host or cells: HEK-293
Description: (§1) Neuro-receptor binding and functional effects of the “E559 polymorph” was examined by analyzing binding affinity [Ki (nM)], functional agonist activity [EC50 (nM)], and functional antagonist activity [IC50 (nM)] against a panel of key receptors in neurophysiological disorders. Binding and functional assays were performed at “E559 polymorph” concentrations of 0.0003, 0.003, 0.01, 0.03, 0.1, 0.3, 1, and 10 μM. In binding assays, cell membrane homogenates, expressing each receptor target, were incubated with the corresponding radio-ligand in absence or presence of several concentration of the “E559 polymorph” compound. The measurement of binding affinity of the “E559 polymorph” is represented in TABLE XIII by Ki (nM) which was calculated as percent inhibition of the binding of a radioactively labeled reference ligand at each receptor. In functional assays the HEK-293 cells expressing each receptor target were suspended in buffer and distribute in microplates and incubated for 30 minutes at room temperature or 37° C. in the presence of buffer alone (basal control), the reference agonist or antagonist, or the “E559 polymorph. Following incubation, the cells were lysed and the appropriate fluorescent probe (Ca2+ flux, cAMP, or IP1) were added for 60 minutes to measure the fluorescence transfer at the appropriate wavelength using a microplate reader. The cellular agonist effect (EC50) was calculated as a percent of control response to a known reference agonist and the cellular antagonist effect (IC50) was calculated as a percent inhibition of control reference agonist response for each receptor.
(§2) The functional agonist activity [EC50 (nM), Emax], and functional antagonist activity [IC50 (nM)] of the 5R:8S stereoisomer of the “E559 polymorph” (5R:8S E558) was compared with the “E559 polymorph” (a 5R:8R stereoisomer) at selected serotonin receptors. The assays were performed as described in Example 6.

[8] = molecular target: T3, 5-HT2A receptor (5-HT2AR) (Homo sapiens, UniProt P28223); experiment: Functional assay in HEK-293 cells (IP1); assay type: cell-based
T3 construct: expressed in transfected cells; host or cells: HEK-293
Description: as §1, §2

[9] = molecular target: T4, Serotonin 2B receptor (5-HT2BR) (Homo sapiens, UniProt P41595); experiment: Functional assay in HEK-293 cells (IP1); assay type: cell-based
T4 construct: expressed in transfected cells; host or cells: HEK-293
Description: as §1, §2

[10] = molecular target: T5, 5-HT1E (Homo sapiens, UniProt P28566); experiment: Functional assay (Arrestin); assay type: cell-based
T5 construct: expressed in transfected cells; host or cells: HEK-293

[11] = molecular target: T6, 5-HT1F (Homo sapiens, UniProt P30939); experiment: Functional assay (cAMP); assay type: cell-based
T6 construct: expressed in transfected cells; host or cells: HEK-293
T6 sequence (P30939 1-366): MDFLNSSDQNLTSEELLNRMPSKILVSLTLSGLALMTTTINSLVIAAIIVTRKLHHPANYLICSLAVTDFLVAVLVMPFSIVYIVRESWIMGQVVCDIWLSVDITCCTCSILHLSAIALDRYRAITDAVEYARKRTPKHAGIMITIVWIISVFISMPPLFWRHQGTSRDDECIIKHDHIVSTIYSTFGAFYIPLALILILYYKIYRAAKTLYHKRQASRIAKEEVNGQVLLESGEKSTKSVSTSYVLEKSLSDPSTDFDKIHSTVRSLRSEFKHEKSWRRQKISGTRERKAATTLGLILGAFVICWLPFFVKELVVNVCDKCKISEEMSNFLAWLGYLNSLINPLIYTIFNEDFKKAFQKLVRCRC
Description: as §1, §2

[12] = molecular target: 5-HT6 (Homo sapiens, UniProt P50406); experiment: Functional assay (cAMP); assay type: cell-based; design: expressed in transfected cells; host or cells: HEK-293
Description: as §1, §2

[13] = cAMP, ligand 5-HT, read-out: Functional Assay (agonist) Emax

T3 sequence (P28223 whole entry): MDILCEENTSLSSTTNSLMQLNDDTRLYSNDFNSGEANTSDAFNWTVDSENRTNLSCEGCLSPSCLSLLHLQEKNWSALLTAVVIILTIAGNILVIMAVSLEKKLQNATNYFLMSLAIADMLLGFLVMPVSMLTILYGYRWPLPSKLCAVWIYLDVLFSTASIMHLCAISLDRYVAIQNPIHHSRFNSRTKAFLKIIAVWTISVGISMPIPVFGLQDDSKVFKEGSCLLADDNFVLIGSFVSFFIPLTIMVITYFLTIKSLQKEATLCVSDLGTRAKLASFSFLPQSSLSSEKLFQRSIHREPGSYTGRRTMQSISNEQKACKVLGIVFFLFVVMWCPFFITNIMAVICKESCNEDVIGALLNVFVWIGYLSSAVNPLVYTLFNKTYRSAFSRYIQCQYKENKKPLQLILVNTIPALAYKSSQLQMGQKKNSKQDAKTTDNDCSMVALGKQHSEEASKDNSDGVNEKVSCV
T1 sequence (P28223 whole entry, the tested form may be a part): as the sequence (P28223 whole entry) above
Sequence of 5-HT6 (P50406 whole entry): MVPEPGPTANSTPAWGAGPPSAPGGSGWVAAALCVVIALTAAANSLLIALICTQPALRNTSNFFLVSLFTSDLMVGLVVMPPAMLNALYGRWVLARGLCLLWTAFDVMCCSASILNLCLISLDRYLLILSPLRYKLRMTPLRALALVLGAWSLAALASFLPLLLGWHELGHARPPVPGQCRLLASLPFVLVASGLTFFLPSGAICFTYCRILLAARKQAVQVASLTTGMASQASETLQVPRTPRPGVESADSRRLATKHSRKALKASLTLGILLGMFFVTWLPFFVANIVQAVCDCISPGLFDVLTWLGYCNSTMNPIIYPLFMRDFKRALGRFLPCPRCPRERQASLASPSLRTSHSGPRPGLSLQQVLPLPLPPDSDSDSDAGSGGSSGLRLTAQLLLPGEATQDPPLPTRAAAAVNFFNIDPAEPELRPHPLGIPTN
T4 sequence (P41595 whole entry): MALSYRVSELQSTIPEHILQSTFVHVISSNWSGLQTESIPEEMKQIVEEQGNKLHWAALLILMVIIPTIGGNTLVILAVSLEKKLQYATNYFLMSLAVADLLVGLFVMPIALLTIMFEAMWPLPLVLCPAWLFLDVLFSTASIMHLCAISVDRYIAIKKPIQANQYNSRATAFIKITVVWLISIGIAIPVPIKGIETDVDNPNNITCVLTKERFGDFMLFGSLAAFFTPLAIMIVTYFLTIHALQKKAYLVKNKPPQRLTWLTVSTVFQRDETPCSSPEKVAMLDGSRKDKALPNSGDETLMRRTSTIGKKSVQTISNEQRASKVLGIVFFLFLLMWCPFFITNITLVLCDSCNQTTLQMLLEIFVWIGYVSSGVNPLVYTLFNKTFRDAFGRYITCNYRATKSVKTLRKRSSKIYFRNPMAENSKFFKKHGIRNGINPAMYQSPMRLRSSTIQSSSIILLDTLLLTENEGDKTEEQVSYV
T2 sequence (P28222 whole entry): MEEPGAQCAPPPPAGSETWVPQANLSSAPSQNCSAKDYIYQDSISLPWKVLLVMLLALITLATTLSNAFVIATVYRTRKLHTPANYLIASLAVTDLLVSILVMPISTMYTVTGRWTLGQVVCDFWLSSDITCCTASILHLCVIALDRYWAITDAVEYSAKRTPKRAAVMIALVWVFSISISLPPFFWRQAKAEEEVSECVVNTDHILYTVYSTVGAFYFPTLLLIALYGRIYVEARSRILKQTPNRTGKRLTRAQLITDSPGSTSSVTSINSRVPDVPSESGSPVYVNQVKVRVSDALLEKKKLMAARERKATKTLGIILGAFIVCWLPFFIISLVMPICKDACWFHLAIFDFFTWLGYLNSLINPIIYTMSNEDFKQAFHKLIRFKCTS
T5 sequence (P28566 whole entry): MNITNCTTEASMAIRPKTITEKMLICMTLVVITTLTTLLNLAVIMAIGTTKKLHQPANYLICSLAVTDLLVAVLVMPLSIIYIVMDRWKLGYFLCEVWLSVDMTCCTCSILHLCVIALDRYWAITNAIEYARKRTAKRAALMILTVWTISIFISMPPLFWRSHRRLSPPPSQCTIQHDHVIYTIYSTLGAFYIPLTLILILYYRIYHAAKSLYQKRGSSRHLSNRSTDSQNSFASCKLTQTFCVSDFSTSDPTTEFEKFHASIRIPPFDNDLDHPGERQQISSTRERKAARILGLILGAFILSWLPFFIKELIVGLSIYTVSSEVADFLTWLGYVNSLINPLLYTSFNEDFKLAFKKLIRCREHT

In the case of `NCCc1c[nH]c2ccc(O)cc12` [5-HT, serotonin], the “β-Arrestin2 recruitment at the 5-HT2A receptor” value [1] is reported as “strong recruiters of β-Arrestin2” and the “internalization of the 5-HT2A receptor (loss of surface expression)” value [2] is reported as “potent internalization”.
With `COc1cc(CC(C)N)c(OC)cc1I` (stereo not drawn) [DOI, 2,5-Dimethoxy-4-iodoamphetamine] the “tolerance (tachyphylaxis) after repeated dosing, HTR count on DOI challenge” value [3] was “induced a significant degree of tachyphylaxis/tolerance”, the “β-Arrestin2 recruitment at the 5-HT2A receptor” value [1] was “strong recruiters of β-Arrestin2” and the “internalization of the 5-HT2A receptor (loss of surface expression)” value [2] was “potent internalization”.
For `COc1cccc([C@H](O)C2CCN(CCc3ccc(F)cc3)CC2)c1OC` [volinanserin], the “effect of volinanserin on E559 polymorph induced increase in total dendrite length” value ([4]; E559 polymorph 1 μM) was “blocked the increase in total dendrite length”, the “effect of volinanserin pre-treatment on E559 polymorph (1 μM) induced dendritic arbor complexity (Sholl intersections)” value ([4]; every volinanserin concentration tested) was “blocked the effect” and the “dendritic arbor complexity, volinanserin alone” value ([4]; volinanserin followed by vehicle) was “did not change any parameters linked to dendritic arbor complexity”. The “effect of volinanserin pre-treatment on E559 polymorph induced decrease in immobility in FST” value ([5]; volinanserin 0.125 mg/kg IP 1 hour before E559 polymorph 1 mg/kg IP, female and male mice) was “blocked the decrease in immobility” and the “locomotion in the OFT” value ([5]; volinanserin alone or with E559 polymorph, female or male mice) was “did not affect locomotion in the OFT in female or male mice”.
For `CCN(CC)C(=O)[C@@H]1C=C2c3cccc4[nH]c(Br)c(c34)C[C@H]2N(C)C1` [E560, (5R, 8R)-2-Bromo-9,10-didehydro-N,N-diethyl-6-methylergoline-8-carboxamide hemi-L-tartrate], the “DVS (0-90-0 2 cycles) max water absorbed” value ([6]; 90% RH exposure, ~24 hr run time, listed as L-Tartrate) was “absorbed mad 12%”, the “DVS (hold at 75% RH) mass increase” value ([6]; listed as L-Tartrate) was 6.3% mass increase and the “DVS (hold at 75% RH) mass increase” value ([6]; listed as L-tartrate salt) was “about 6.3%”.
With `CCN(CC)C(=O)[C@H]1C=C2c3cccc4[nH]c(Br)c(c34)C[C@H]2N(C)C1` [E558, (5R, 8S)-2-Bromo-9,10-didehydro-N,N-diethyl-6-methylergoline-8-carboxamide] the EC50 [7] was greater than 10000 nM, the EC50 [8] was 0.2 µM and the IC50 [8] was greater than 10 µM. It also gave an Emax ([8]; HEK293, IP1, ligand 5-HT, read-out: Functional Assay (agonist) Emax) of 55%, an EC50 [9] greater than 10 µM and an IC50 [9] greater than 10 µM. It also gave an EC50 [10] greater than 10 µM, an EC50 [11] of 3.12 µM and an Emax [11, 13] of 66.9%. It also gave an EC50 [12] of 0.099 µM and an Emax [12, 13] of 71%.
